Laboratory results as given in patent US10905770B2, “Topical delivery of therapeutic agents using cell-penetrating peptides for the treatment of age-related macular degeneration and other eye diseases” (priority 2017, dated 2021).
Entries after “also recorded” stand apart in the source; their conditions may differ.

Tests used:
[1] = Protocol: (§1) Lutein was dissolved in DMSO (10 mg/mL) and titrated into water. […] As a proxy for topical delivery into the eye by eye drop, 50 μL of lutein plus hexa-arginine (SEQ ID NO: 258) or lutein alone was applied to one side of the outer shell membrane of a chicken egg, and the material that crossed the membrane in water was collected after 2 minutes. The level of lutein was measured by absorbance. The experiment was conducted three times (n=3).
as §1, with “Zeaxanthin” for “Lutein”, “DMF” for “DMSO”, “zeaxanthin” for “lutein”
as §1, with “into water, zeaxanthin was dissolved in DMF (10 mg/mL) and titrated into water, and then lutein and zeaxanthin were mixed in a 1:1 ratio.” for “into water.”, “lutein and zeaxanthin” for “lutein”, “NO: 258),” for “NO: 258)”, “lutein and zeaxanthin without CPP,” for “lutein alone”
as §1, with “Dexamethasone” for “Lutein”, “DMSO” for “DMSO (10 mg/mL)”, “dexamethasone” for “lutein”, “presence” for “level”, “detected” for “measured”, “electrospray mass spectroscopy.” for “absorbance. The experiment was conducted three times (n=3).”
Tacrolimus was dissolved in DMSO and titrated into water. […] As a proxy for topical delivery into the eye by eye drop, 50 μL of tacrolimus plus hexa-arginine (SEQ ID NO: 258) or tacrolimus alone was applied to one side of the outer shell membrane of a chicken egg, and the material that crossed the membrane in water was collected after 2 minutes. The presence of tacrolimus was detected by electrospray mass spectroscopy.
as §1, with “Adalimumab” for “Lutein”, “fluorescently tagged” for “dissolved in DMSO (10 mg/mL)”, “purified.” for “titrated into water.”, “adalimumab” for “lutein”, “PBS” for “water”, “fluorescence.” for “absorbance.”
As a proxy for topical delivery into the eye by eye drop, 50 μL of glucose plus hexa-arginine (SEQ ID NO: 258) or glucose alone was applied to one side of the outer shell membrane of a chicken egg, and the material that crossed the membrane in water was collected after 2 minutes. The presence of glucose was detected by electrospray mass spectroscopy.
(§2) As a proxy for topical delivery into the eye by eye drop, 50 μL of BDNF plus hexa-arginine (SEQ ID NO: 258) or BDNF alone was applied to one side of the outer shell membrane of a chicken egg, and the material that crossed the membrane in PBS was collected after 2 minutes. The level of BDNF was measured by ELISA. The experiment was conducted three times (n=3).
as §2, with “GDNF” for “BDNF”, “ELISA.” for “ELISA. The experiment was conducted three times (n=3).”

geographic atrophy (GA) = settings: vs placebo, cited from earlier work
[2] = tested on: geriatric macaques with naturally occurring age-related maculopathy; test: Macaque study: fellow non-injected eye, tolerability and blood hsCRP; assay type: in vivo
Protocol: (§3) The macaque study was conducted according to accepted guidelines. […] One eye per animal received 6 monthly injections of the same escalating dosages of L-4F or scrambled L-4F (total of 625 μg) in a 50 μL volume. The second eye per animal was not injected and was just observed.
(§4) Clinical laboratory tests including serology, hemograms and liver enzymes were conducted, and ophthalmic examinations were also performed, including fundus photographs, optical coherence tomography (OCT), intraocular pressure testing and blood sampling. After 7 months, all animals were sacrificed and eyes were immediately prepared for histology. Histochemistry was performed with oil red O for neutral lipids and filipin for esterified cholesterol. Immunohistochemistry was performed against complement factor D (CFD) and the membrane attack complex (MAC, C5b-9), both being markers of activation of the alternative complement pathway.
Circulating hsCRP, which is mainly produced in the liver, is a non-specific marker for systemic inflammation.

[3] = tested on: neutral lipids in and on the Bruch's membrane; test: Oil red O staining of neutral lipids in Bruch's membrane, macaque study; assay type: in vivo, Macaca fascicularis; settings: eyes injected with L-4F vs eyes injected with placebo; 6 monthly intravitreal injections (total 625 μg); after 6 months
Protocol: as §3
as §4, with “Immunohistochemistry was performed against complement factor D (CFD) and the membrane attack complex (MAC, C5b-9), both being markers of activation of the alternative complement pathway.” left out
For staining with oil red O (ORO), specimens were treated with a 0.3% oil red O (Sigma-Aldrich Biochemie GmbH, Hamburg, Germany) solution (in 99% isopropanol) for 30 min at room temperature (RT), followed by immersion in a 60% isopropanol solution for 12 min. […] Image analysis was performed by grading the intensity of ORO staining (red color) of the Bruch's membrane (BrM) with scores ranging from 0 to 4, according to a qualitative evaluation assessed in four different regions in two separate slices from each eye (a total of 8 different regions from each eye). […]

[4] = tested on: geriatric macaques with naturally occurring age-related maculopathy; test: Bruch's membrane thickness by electron microscopy, macaque study; assay type: in vivo, Macaca fascicularis
Protocol: as §3
Lipid deposition in the Bruch's membrane contributes to thickening of the BrM. Bruch's membrane thickness was measured at the temporal outer macula of enucleated eyes examined by electron microscopy post-mortem.

[5] = tested on: complement factor D (CFD); test: Immunohistochemistry of complement factor D, macaque study; assay type: in vivo, Macaca fascicularis; settings: eyes injected with L-4F vs eyes injected with the scrambled peptide; fluorescence intensity
Protocol: as §3
(§5) Clinical laboratory tests including serology, hemograms and liver enzymes were conducted, and ophthalmic examinations were also performed, including fundus photographs, optical coherence tomography (OCT), intraocular pressure testing and blood sampling. After 7 months, all animals were sacrificed and eyes were immediately prepared for histology. […]
(§6) Assays for immunohistochemistry of the membrane attack complex (MAC, C5b-9) and complement factor D (CFD) were performed identically except for employment of monoclonal antibodies specific for each complement component. […] Fluorescence microscopy was conducted using an inverted fluorescence microscope (DMI 6000 from Leica Microsystems, Wetzlar, Germany) and a filter set for λex/λem=470 nm/525 nm. For the semiquantitative analysis of fluorescence intensity of C5b-9, 3-5 different regions in one slide were analyzed for 3 different slides from each eye (a total of 9-15 different regions from each eye). For the semiquantitative analysis of fluorescence intensity of complement factor D, 3 distinct regions for each eye were evaluated.

[6] = tested on: esterified cholesterol in the Bruch's membrane; test: Filipin staining of esterified cholesterol in Bruch's membrane, macaque study; assay type: in vivo, Macaca fascicularis; settings: eyes injected with L-4F vs placebo-injected eyes; 6 monthly intravitreal injections
Protocol: as §3, §5
For staining with filipin, specimens were washed once with deionized water for 5 min and then treated with 70% ethanol for 45 min. […] The specimens were then washed sequentially with PBS and deionized water, mounted with a mounting solution (Mowiol®, Carl Roth GmbH, Karlsruhe, Germany), covered with a glass cover slip, and examined using an inverted fluorescence microscope (DMI 6000 from Leica Microsystems, Wetzlar, Germany). Filipin fluorescence was observed using a UV filter set (λex/λem=350 nm/455 nm). […] Semiquantitative analysis of fluorescence intensity of filipin at three separate regions of the BrM was done on three different slides from the same eye (a total of 9 different regions from each eye).

[7] = tested on: membrane attack complex (MAC, C5b-9); test: Immunohistochemistry of membrane attack complex, macaque study; assay type: in vivo, Macaca fascicularis; settings: eyes injected with L-4F vs eyes injected with the scrambled peptide; fluorescence intensity
Protocol: as §3, §5, §6

rat eye in vivo = test: CPP-assisted delivery into rat eye in vivo
Protocol: An eye drop of 50 μL of bevacizumab plus hexa-arginine (SEQ ID NO: 258) was applied topically to the front of one of the eyes of a live rat, and then the rat was sacrificed 60 minutes after topical application.

Which “crossing of the egg shell membrane” value [1] does the source give for `CC1=C(/C=C/C(C)=C/C=C/C(C)=C/C=C/C=C(C)/C=C/C=C(C)/C=C/C2=C(C)C[C@@H](O)CC2(C)C)C(C)(C)C[C@H](O)C1` [zeaxanthin] here?
Its value is “a very small amount”.

With adalimumab as the molecule, how does the “amount that crossed the membrane with hexa-arginine compared with without” value [1] read?
The value was “markedly greater”.

And the “fluorescence of material that crossed the egg shell membrane” value [1]?
The value was 1359±3.

Which “crossing of the egg shell membrane (electrospray mass spectroscopy)” value [1] does the source give for `C[C@@H]1C[C@H]2[C@@H]3CCC4=CC(=O)C=C[C@]4(C)[C@@]3(F)[C@@H](O)C[C@]2(C)[C@@]1(O)C(=O)CO` [dexamethasone, reference compound] here?
Its value is “did not cross”.

With `CC1=C[C@H](O)CC(C)(C)[C@H]1/C=C/C(C)=C/C=C/C(C)=C/C=C/C=C(C)/C=C/C=C(C)/C=C/C1=C(C)C[C@@H](O)CC1(C)C` [lutein] as the molecule, how does the “crossing of the egg shell membrane” value [1] read?
The value was “did not cross”.

With “lampalizumab: antigen-binding fragment (Fab) of a humanized monoclonal antibody targeting CFD” as the molecule, how does the “reduction in the rate of GA enlargement, and hence the area of GA, in the injected eye” value (geographic atrophy (GA); monthly intravitreal injections of 10 mg for 18 months, fundus autofluorescence) read?
The value was “about 20%”.

And the “reduction in the GA growth rate, and hence the area of GA” value (geographic atrophy (GA); subgroup positive for CFI mutations, monthly intravitreal 10 mg for 18 months)?
The value was “about 44%”.

Which results are given for Ac-DWFKAFYDKVAEKFKEAF-NH2 [L-4F]?
blood level of high-sensitivity C-reactive protein (hsCRP) ([2]; after 6 monthly intravitreal injections vs day prior to first injection): did not increase; tolerability (adverse events, side effects) ([2]; macaques intravitreally injected with L-4F): well tolerated; reduction of lipid deposits from the BrM (staining with oil red O) [3]: about 56%; reduction of BrM thickness ([4]; eyes injected with L-4F vs eyes injected with placebo): about 24%; BrM thickness ([4]; eyes injected with L-4F, temporal outer macula, electron microscopy post-mortem, ±SE): 1.31 μm; decreased level of complement factor D [5]: about 41%; reduction of esterified cholesterol in the BrM (filipin fluorescence) [6]: about 68%; decreased level of MAC (C5b-9) in the BrM and the choriocapillaris [7]: about 58%

Which “delivery into the posterior segment (the vitreous and the retina) of the treated eye” value (rat eye in vivo; 50 μL eye drop, bevacizumab 25 mg/mL plus hexa-arginine 5 mg/mL, 60 minutes, human IgG ELISA) does the source give for bevacizumab: anti-VEGF antibody here?
Its value is “entered; also recorded: delivered”.

And the “level in the bloodstream” value (rat eye in vivo; 60 minutes after topical application)?
Its value is “not detected”.

And the “level in the fellow untreated eye” value (rat eye in vivo; 60 minutes after topical application to the other eye, human IgG ELISA)?
The value was “not detected”.

For `C=CC[C@@H]1/C=C(\C)C[C@H](C)C[C@H](OC)[C@H]2O[C@@](O)(C(=O)C(=O)N3CCCC[C@H]3C(=O)O[C@H](/C(C)=C/[C@@H]3CC[C@@H](O)[C@H](OC)C3)[C@H](C)[C@@H](O)CC1=O)[C@H](C)C[C@@H]2OC` [tacrolimus, reference compound], which “crossing of the egg shell membrane (electrospray mass spectroscopy)” value [1] is on record?
The value was “did not cross”.

B1: BDNF: brain-derived neurotrophic factor (protein, UniProt P23560 19-247, looked up)
Neurotrophic factor BDNF …: APMKEANIRGQGGLAYPGVRTHGTLESVNGPKAGSRGLTSLADTFEHVIEELLDEDQKVRPNEENNKDADLYTSRVMLSSQVPLEPPLLFLLEEYKNYLDAANMSMRVRRHSDPARRGELSVCDSISEWVTAADKKTAVDMSGGTVTVLEKVPVSKGQLKQYFYETKCNPMGYTKEGCRGIDKRHWNSQCRTTQSYVRALTMDSKKRIGWRFIRIDTSCVCTLTIKRGR
Which “crossing of the egg shell membrane” value [1] does the source give for B1 here?
Its value is “did not cross”.

B2: GDNF: glial cell-derived neurotrophic factor (protein, UniProt P39905 78-211, looked up)
Glial cell line-derived …: SPDKQMAVLPRRERNRQAAAANPENSRGKGRRGQRGKNRGCVLTAIHLNVTDLGLGYETKEELIFRYCSGSCDAAETTYDKILKNLSRNRRLVSDKVGQACCRPIAFDDDLSFLDDNLVYHILRKHSAKRCGCI
With B2 as the molecule, how does the “crossing of the egg shell membrane” value [1] read?
The value was “did not cross”.
